Converted amounts (≈) assume the structure as drawn.
Columns and labels:
[1] = test system: rat liver tRNA-guanine transglycosylase; test: uptake of compound into tRNA ([3H]-guanine labeled tRNA exchange); format: biochemical; conditions: 0.02 OD260 of compound, 37° C., 17 hours, 0.5 unit enzyme
Description: [^3 H]-Guanine labeled tRNA^(*^) (8000 cpm), 70 mM of tris hydrochloride, 60 mM of magnesium chloride, 0.5 unit of rat liver tRNA-guanine transglycosylase and 0.02 OD260 of the compound of Example 1 (which appears hereinafter) (100 μl) were incubated at 37° C. for 17 hours. The reaction mixture was applied to a Whatman 3 MM filter paper (Whatman Co., U.S.A.) and washed 3 times with a 5% aqueous solution of trichloroacetic acid and, then, once each with ethanol/ether (1:1) and ether alone. After drying, the uptake of the test compound was determined in a toluenic scintillation fluid.
^(*^) tRNA with the firstletter (base) of its anticodon labeled with [^3 H]guanine.
The uptake of the compound of Example 2 into tRNA was determined in the same manner as Experimental Example 1. The result was 57%.

[2] = test system: L5178Y mouse tumor cells; test: growth inhibition of cultured L5178Y cells; format: cell-based; conditions: 72 hours incubation with drug, cell count vs non-treated control, read-out: IC50 (50% growth inhibitory concentration)
Description: 1×10^4 L5178Y mouse tumor cells were suspended in 2 ml of a RPMI-1640 medium containing 10% of bovine fetal serum, 20 μM of 2-mercaptoethanol and 100 μg/ml kanamycin (Nissui Pharmaceutical Co., Ltd. Japan), and incubated at 37° C. for 24 hours before addition of the drug. Using the above culture fluid as a diluent, the compound of Example 1 was diluted 1/4-fold in a series of 5 stages, the maximum concentration of the compound in the medium being 200 μg/ml. The dilutions were further incubated for 72 hours, at the end of which time the cells were counted and the IC50 (50% growth inhibitory concentration) was calculated with the count for the non-treated control group being taken as 100%.

[3] = test system: Meth A tumor cells; test: Meth A tumor growth inhibition in mice; format: in vivo; conditions: BALB/c mouse, s.c. transplant, 100 mg/kg i.p. once daily for 14 days from day 4, tumor weight on 35th day
Description: 5×10^4 Meth A tumor cells were subcutaneously transplanted into a BALB/c mouse weighing 20 g and starting on the 4th day after transplantation, a solution of the compound of Example 1 in 0.1 ml of distilled water was intraperitoneally injected into the mouse once daily in a dose of 100 mg/kg for 14 consecutive days. On the 35th day after transplantation, the tumor node was enucleated and weighed.

Nc1nc2[nH]cc(CN[C@H]3C=C[C@H](O)[C@@H]3O)c2c(=S)[nH]1 [Example 1, 2-amino-5-[(3S,4R,5S)-4,5-dihydroxycyclopent-1-en-3-ylaminomethy-]pyrrolo[2,3-d]pyrimidine-4-thione]
uptake of the test compound into tRNA (% of tRNA) [1]: 81% | IC50 [2]: 22 µg/mL (≈ 75 µM) | tumor growth inhibition rate [3]: 71%

NCc1c[nH]c2nc(N)[nH]c(=S)c12 [Example 2, 2-amino-5-aminomethylpyrrolo[2,3-d]pyrimidine-4-thione]
uptake of the test compound into tRNA (% of tRNA) [1]: 57%

— patent US4595530A, “Thiodeazapurine derivatives” (Takeda Chemical Industries, Ltd., priority 1983, dated 1986)
